Where a name gives a salt, the structure may show the parent alone.
Columns and labels:
Format in all cases: in vivo
[1] = tested on: reserpine-induced hypothermia in the mouse; test: Reversal of reserpine-induced hypothermia in the mouse; conditions: 32 mg./kg. i.p., 2 hours after dosing; reserpine 2 mg./kg. s.c. 18 hours before; saline control 25.1° ± 3.2° C.
Procedure: The 1-amino-4-phenyltetraline final products of Examples III-IX were tested for antidepressant activity by measuring their ability to reverse reserpine-induced hypothermia in the mouse according to the procedure described by B.M. Askew in Life Science, Vol. 2, p. 725 (1963). In this test, all the animals were individually housed in plastic chambers with a cardboard bottom. The mice were injected with reserpine subcutaneously at 2 mg./kg. and retained at an ambient temperature of 20° C. for a period of 18 hours. At this point, their rectal temperatures were initially ascertained and immediately thereafter they were divided into groups of 5-20 animals for testing purposes. Each group then received either saline as a control or the compound to be tested at a dose level of 32 mg./kg., administered intraperitoneally, and the resulting rectal temperatures were measured two hours later. In the table below, the entries are reported as mean rectal temperatures for each compound at the 2-hour mark, together with the number of animals tested in each particular group.

[2] = tested on: spontaneous motor activity in mice; test: Spontaneous motor activity in mice (actophotometer activity counts)
Procedure: A total of seven mice was employed at each dose level tested (viz., at 0.32, 1.0, 3.2, 10 and 32 mg./kg., i.p., respectively) and these mice were separated one to an activity cage. After an initial one-half hour exposure period (for acclimation purposes), each animal in the cage was treated with a sample of the drug intraperitoneally and immediately thereafter returned to said cage, with activity counts every one-half hour being recorded from that point on.

[3] = tested on: non-discriminated (Sidman) avoidance behavior rats; test: Non-discriminated (Sidman) avoidance behavior in rats; conditions: 5 mg./kg. and 10 mg./kg. i.p.
From the text: Eight (8) mature male rats were trained in Lehigh Valley automatic multiple-operant conditioning chambers to avoid a 2.0 mA electric shock that would last for 0.75 second, or terminate sooner if the rat lever became activated during the shock. In these tests, lever presses postponed the onset of shock for an initial period of 30 seconds, while only 10 seconds elapsed between shocks if no intervening response was elicited. The rats were run for a 40-minute control period before receiving the drug and then for approximately 2.5 hours after each treatment.

[4] = tested on: motor activity in mice; avoidance behavior in rats; test: Psychomotor stimulant activity (motor activity in mice; Sidman avoidance in rats); conditions: as the hydrochloride salt
From the text: On the other hand, the activity of the compounds of the present invention, as psychomotor stimulants, is based on a variety of tests, including (1) a study of their motor activity in mice and (2) a measurement of their ability to influence the loss of avoidance behavior in rats trained on a non-discriminated (Sidman) avoidance schedule.

rats = test: Antidepressant and psychomotor stimulant activity in rats, intraperitoneal; conditions: i.p., 3.2 mg./kg. to 32 mg./kg.
From the text: (§1) As previously indicated, the 1-amino-4-phenyltetralin compounds of this invention (in the form of their trans-isomers) are all readily adapted to therapeutic use as psychotropic agents, particularly in view of their potent antidepressant and psychomotor stimulant properties. […] The other compounds of this invention also cause similar results. Furthermore, all the herein described trans-isomers of this invention can be administered as psychotropic agents by either the oral or parenteral routes of administration, for the present purposes at hand, without causing any significant untoward pharmacological side effects to occur in the subject to whom they are so administered. In general, these psychotropic compounds are normally administered in dosages ranging from about 0.3 mg., to about 10 mg. per kg. of body weight per day, although variations will necessarily occur depending upon the weight and conditions of the subject being treated and the particular route of administration chosen.

[5] = Toxic / untoward side effects on administration; conditions: rats, i.p., 3.2 mg./kg. to 32 mg./kg.
From the text: as §1

Compound: CN[C@@H]1CC[C@@H](c2ccccc2)c2ccccc21 [Trans-d-isomer of Example III, trans-d-N-methyl-4-phenyl-1,2,3,4-tetrahydro-1-naphthylamine as the hydrochloride]
- Mean Rectal Temperature, Temp. (° C.) ±S.D. [1]: 34.1 ± 0.7 °C
- duration of effect compared with d-amphetamine sulfate ([2]; 10 mg./kg. i.p. vs d-amphetamine sulfate at 3.2 mg./kg.): even more prolonged in its effect than did that of d-amphetamine sulfate
- effect on activity counts compared with d-amphetamine sulfate ([2]; 10 mg/kg. i.p. vs d-amphetamine sulfate at 3.2 mg./kg.): more pronounced than that of d-amphetamine sulfate
- effect on activity counts compared with methylphenidate ([2]; 10 mg/kg. i.p. vs methylphenidate at 10 mg./kg.): surpassing even that of methylphenidate
- activity counts ([2]; 10 mg/kg.(i.p.), 30-60 minutes after treatment): markedly elevated the activity counts
- duration of drug effect after administration [3]: approximately one and a half
- start of drug effect [3]: ≤ 20 min
- increase of response rates over normal pre-drug control levels ([3]; four out of eight rats): 2-6 times
- response rates ([3]; four out of eight rats): moderate to marked increase in response rates
- increase of response rates over pre-drug control levels ([3]; two other rats): about 1.5 times
- duration of motor stimulant activity [4]: long duration of motor stimulant activity
- onset of action [4]: rapid onset of action
- potency as psychomotor stimulant compared with methylphenidate [4]: comparable in potency to methylphenidate
- antidepressant and psychomotor stimulant activity (rats): marked antidepressant and psychomotor stimulant activity
- signs of toxic side effects [5]: without showing any substantial signs of toxic side effects
